Assay results as given in patent publication US11331299B2, “Medicinal use of serrulatane diterpenes” (The University of Sydney, priority 2016, dated 2022).
pEC50, pIC50: −log10 of the molar value. Read-outs that look alike come from different tables or passages of the source.

Tested on: 280 human cancer cell lines
Assay: OncoPanel cell proliferation assay (10-day)
Type: cell-based
Conditions: Homo sapiens; for pEC50: read-out: Cell Count EC50; for GI50: read-out: Cell Count GI50; for pIC50: read-out: Cell Count IC50
[1] = Caov-3, CaOV3, Female GU - Ovary
[2] = ChaGo-K-1, ChaGoK1, Lung - NSCLC
[3] = D341 Med, CNS - Medulloblastoma
[4] = Detroit 562, Detroit 562, Head and Neck
[5] = DoTc2-4510, DoTc2 4510, Lymphoma
[6] = G292, G-292, clone A141B1, Soft Tissue - Osteosarcoma
[7] = HEL 92.1.7, HEL-92-1-7, Leukemia
[8] = HOS, Soft Tissue - Osteosarcoma
[9] = HT-1080, HT-1080, Soft Tissue - Sarcoma
[10] = HUH-6-clone5, HUH-6 Clone 5, Liver
[11] = Hs 821.T, Soft Tissue - Sarcoma
[12] = Hs 888.Sk, Soft Tissue - Osteosarcoma

SMILES: CC(C)=CCC[C@H](C)[C@@H]1CC[C@@H](C)c2c1cc(C)c(O)c2O [Compound 4, 7,8-dihydroxyserrulat-14-ene]
- pEC50 [1]: 4.99
- GI50 [1]: 10.2 µM
- pIC50 [1]: 4.99
- pEC50 (Capan-2, Capan-2, Pancreas): 4.61
- GI50 (Capan-2, Capan-2, Pancreas): 24.7 µM
- pIC50 (Capan-2, Capan-2, Pancreas): 4.61
- pEC50 [2]: 5.05
- GI50 [2]: 8.82 µM
- pIC50 [2]: 5.05
- pEC50 [3]: 5.07
- GI50 [3]: 8.4 µM
- pIC50 [3]: 5.07
- pEC50 (DB, Lymphoma): 5.41
- GI50 (DB, Lymphoma): 3.84 µM
- pIC50 (DB, Lymphoma): 5.41
- pEC50 (DBTRG-05MG, CNS - Glioma): 4.75
- GI50 (DBTRG-05MG, CNS - Glioma): 17.4 µM
- pIC50 (DBTRG-05MG, CNS - Glioma): 4.75
- pEC50 (DK-MG, CNS - Glioma): 4.76
- GI50 (DK-MG, CNS - Glioma): 16.4 µM
- pIC50 (DK-MG, CNS - Glioma): 4.76
- pEC50 (DLD-1, DLD-1, Colon): 4.80
- GI50 (DLD-1, DLD-1, Colon): 15.7 µM
- pIC50 (DLD-1, DLD-1, Colon): 4.80
- pEC50 (DMS-53, DMS53, Lung - SCLC): 5.05
- GI50 (DMS-53, DMS53, Lung - SCLC): 8.6 µM
- pIC50 (DMS-53, DMS53, Lung - SCLC): 5.05
- pEC50 (DMS-114, DMS114, Lung - SCLC): 4.94
- GI50 (DMS-114, DMS114, Lung - SCLC): 11.4 µM
- pIC50 (DMS-114, DMS114, Lung - SCLC): 4.94
- pEC50 (DOHH-2, DOHH-2, Lymphoma): 5.65
- GI50 (DOHH-2, DOHH-2, Lymphoma): 2.24 µM
- pIC50 (DOHH-2, DOHH-2, Lymphoma): 5.65
- pEC50 (DU-145, DU145, Prostate): 4.74
- GI50 (DU-145, DU145, Prostate): 18.1 µM
- pIC50 (DU-145, DU145, Prostate): 4.74
- pEC50 (Daoy, CNS - Medulloblastoma): 5.50
- GI50 (Daoy, CNS - Medulloblastoma): 3.19 µM
- pIC50 (Daoy, CNS - Medulloblastoma): 5.50
- pEC50 (Daudi, Lymphoma): 5.64
- GI50 (Daudi, Lymphoma): 2.28 µM
- pIC50 (Daudi, Lymphoma): 5.64
- pEC50 [4]: 4.60
- GI50 [4]: 25 µM
- pIC50 [4]: 4.60
- pEC50 [5]: 5.03
- GI50 [5]: 9.09 µM
- pIC50 [5]: 5.03
- pEC50 (EB2, Lymphoma): 5.08
- GI50 (EB2, Lymphoma): 8.32 µM
- pIC50 (EB2, Lymphoma): 5.08
- pEC50 (EB-3, Lymphoma): 5.41
- GI50 (EB-3, Lymphoma): 3.93 µM
- pIC50 (EB-3, Lymphoma): 5.41
- pEC50 (EFM-19, EFM-19, Breast): 4.92
- GI50 (EFM-19, EFM-19, Breast): 11.3 µM
- pIC50 (EFM-19, EFM-19, Breast): 4.92
- pEC50 (EM-2, Leukemia): 5.40
- GI50 (EM-2, Leukemia): 4 µM
- pIC50 (EM-2, Leukemia): 5.40
- pEC50 (FaDu, Head and Neck): 5.08
- GI50 (FaDu, Head and Neck): 8.28 µM
- pIC50 (FaDu, Head and Neck): 5.08
- pEC50 [6]: 5.21
- GI50 [6]: 6.07 µM
- pIC50 [6]: 5.20
- pEC50 (G-361, G-361, Skin (Melanoma)): 4.86
- GI50 (G-361, G-361, Skin (Melanoma)): 13.8 µM
- pIC50 (G-361, G-361, Skin (Melanoma)): 4.86
- pEC50 (G-401, G-401, Kidney): 5.09
- GI50 (G-401, G-401, Kidney): 8.05 µM
- pIC50 (G-401, G-401, Kidney): 5.09
- pEC50 (GA-10, GA-10, Lymphoma): 5.91
- GI50 (GA-10, GA-10, Lymphoma): 1.23 µM
- pIC50 (GA-10, GA-10, Lymphoma): 5.91
- pEC50 (H4, CNS - Glioma): 4.89
- GI50 (H4, CNS - Glioma): 13 µM
- pIC50 (H4, CNS - Glioma): 4.89
- pEC50 (HCT-15, HCT-15, Colon): 4.87
- GI50 (HCT-15, HCT-15, Colon): 13.4 µM
- pIC50 (HCT-15, HCT-15, Colon): 4.87
- pEC50 (HCT-116, HCT-116, Colon): 4.99
- GI50 (HCT-116, HCT-116, Colon): 10.3 µM
- pIC50 (HCT-116, HCT-116, Colon): 4.99
- pEC50 (HEC-1-A, Female GU - Uterus): 4.91
- GI50 (HEC-1-A, Female GU - Uterus): 12.2 µM
- pIC50 (HEC-1-A, Female GU - Uterus): 4.91
- pEC50 [7]: 5.39
- GI50 [7]: 4.05 µM
- pIC50 [7]: 5.39
- pEC50 (HLE, Liver): 5.14
- GI50 (HLE, Liver): 7.15 µM
- pIC50 (HLE, Liver): 5.14
- pEC50 (HLF, Liver): 5.06
- GI50 (HLF, Liver): 8.7 µM
- pIC50 (HLF, Liver): 5.06
- pEC50 (HMCB, Skin (Melanoma)): 5.02
- GI50 (HMCB, Skin (Melanoma)): 9.38 µM
- pIC50 (HMCB, Skin (Melanoma)): 5.02
- pEC50 [8]: 5.51
- GI50 [8]: 3.08 µM
- pIC50 [8]: 5.51
- pEC50 (HPAF-II, Pancreas): 4.91
- GI50 (HPAF-II, Pancreas): 12.4 µM
- pIC50 (HPAF-II, Pancreas): 4.90
- pEC50 (HT1197, HT-1197, Bladder): 4.81
- GI50 (HT1197, HT-1197, Bladder): 15.2 µM
- pIC50 (HT1197, HT-1197, Bladder): 4.81
- pEC50 (HT, Lymphoma): 5.35
- GI50 (HT, Lymphoma): 4.46 µM
- pIC50 (HT, Lymphoma): 5.35
- pEC50 (HT-3, Female GU - Cervix): 4.84
- GI50 (HT-3, Female GU - Cervix): 14.3 µM
- pIC50 (HT-3, Female GU - Cervix): 4.84
- pEC50 (HT-29, HT-29, Colon): 4.77
- GI50 (HT-29, HT-29, Colon): 17 µM
- pIC50 (HT-29, HT-29, Colon): 4.77
- pEC50 [9]: 5.35
- GI50 [9]: 4.42 µM
- pIC50 [9]: 5.35
- pEC50 (HT-1376, HT1376, Bladder): 4.85
- GI50 (HT-1376, HT1376, Bladder): 13.8 µM
- pIC50 (HT-1376, HT1376, Bladder): 4.85
- pEC50 [10]: 5.02
- GI50 [10]: 9.46 µM
- pIC50 [10]: 5.02
- pEC50 (HeLa, Female GU - Cervix): 4.68
- GI50 (HeLa, Female GU - Cervix): 21.1 µM
- pIC50 (HeLa, Female GU - Cervix): 4.68
- pEC50 (HepG2, HepG2, Liver): 4.59
- GI50 (HepG2, HepG2, Liver): 25.6 µM
- pIC50 (HepG2, HepG2, Liver): 4.59
- pEC50 (Hs 229.T, Lung - NSCLC): 4.59
- GI50 (Hs 229.T, Lung - NSCLC): 25.2 µM
- pIC50 (Hs 229.T, Lung - NSCLC): 4.58
- pEC50 (Hs 294T, Skin (Melanoma)): 5.08
- GI50 (Hs 294T, Skin (Melanoma)): 8.23 µM
- pIC50 (Hs 294T, Skin (Melanoma)): 5.08
- pEC50 (Hs 445, Hs 445, Lymphoma): 5.24
- GI50 (Hs 445, Hs 445, Lymphoma): 5.74 µM
- pIC50 (Hs 445, Hs 445, Lymphoma): 5.24
- pEC50 (Hs 611.T, Lymphoma): 5.29
- GI50 (Hs 611.T, Lymphoma): 5.05 µM
- pIC50 (Hs 611.T, Lymphoma): 5.29
- pEC50 (Hs 683, Hs 683, CNS - Glioma): 4.61
- GI50 (Hs 683, Hs 683, CNS - Glioma): 24.3 µM
- pIC50 (Hs 683, Hs 683, CNS - Glioma): 4.61
- pEC50 (Hs 688(A).T, Skin (Melanoma)): 5.13
- GI50 (Hs 688(A).T, Skin (Melanoma)): 6.88 µM
- pIC50 (Hs 688(A).T, Skin (Melanoma)): 5.11
- pEC50 (Hs746T, HS 746T, Stomach): 4.70
- GI50 (Hs746T, HS 746T, Stomach): 17.1 µM
- pIC50 (Hs746T, HS 746T, Stomach): 4.70
- pEC50 (Hs766T, Hs 766T, Pancreas): 5.03
- GI50 (Hs766T, Hs 766T, Pancreas): 9.08 µM
- pIC50 (Hs766T, Hs 766T, Pancreas): 5.03
- pEC50 [11]: 4.90
- GI50 [11]: 9.99 µM
- pIC50 [11]: 4.89
- pEC50 [12]: 4.91
- GI50 [12]: 12.1 µM
- pIC50 [12]: 4.90
- pEC50 (Hs 934.T, Skin (Melanoma)): 4.95
- GI50 (Hs 934.T, Skin (Melanoma)): 10.2 µM
- pIC50 (Hs 934.T, Skin (Melanoma)): 4.94
- pEC50 (Hs 936.T(C1), Skin (Melanoma)): 5.04
- GI50 (Hs 936.T(C1), Skin (Melanoma)): 10.2 µM
- pIC50 (Hs 936.T(C1), Skin (Melanoma)): 4.98
- pEC50 (Hs-578T, Hs 578T, Breast): 4.82
- GI50 (Hs-578T, Hs 578T, Breast): 14.9 µM
- pIC50 (Hs-578T, Hs 578T, Breast): 4.82
- pEC50 (HuCCT-1, HuCCT1, Liver): 4.61
- GI50 (HuCCT-1, HuCCT1, Liver): 24.8 µM
- pIC50 (HuCCT-1, HuCCT1, Liver): 4.61
- pEC50 (HuP-T4, HuP-T4, Pancreas): 4.86
- GI50 (HuP-T4, HuP-T4, Pancreas): 13.6 µM
- pIC50 (HuP-T4, HuP-T4, Pancreas): 4.86
- pEC50 (J82, Bladder): 5.21
- GI50 (J82, Bladder): 6.09 µM
- pIC50 (J82, Bladder): 5.21
- pEC50 (JAR, Placenta): 5.19
- GI50 (JAR, Placenta): 6.49 µM
- pIC50 (JAR, Placenta): 5.19
- pEC50 (JEG-3, JEG-3, Placenta): 5.19
- GI50 (JEG-3, JEG-3, Placenta): 6.48 µM
- pIC50 (JEG-3, JEG-3, Placenta): 5.19
- pEC50 (JIYOYE, Lymphoma): 5.45
- GI50 (JIYOYE, Lymphoma): 3.55 µM
- pIC50 (JIYOYE, Lymphoma): 5.45
- pEC50 (JeKo-1, JeKo-1, Lymphoma): 5.41
- GI50 (JeKo-1, JeKo-1, Lymphoma): 3.91 µM
- pIC50 (JeKo-1, JeKo-1, Lymphoma): 5.41
- pEC50 (Jurkat, Leukemia): 5.44
- GI50 (Jurkat, Leukemia): 3.58 µM
- pIC50 (Jurkat, Leukemia): 5.44
- pEC50 (K562, K562, Leukemia): 4.91
- GI50 (K562, K562, Leukemia): 12.2 µM
- pIC50 (K562, K562, Leukemia): 4.91
- pEC50 (KATO III, Stomach): 4.96
- GI50 (KATO III, Stomach): 11.1 µM
- pIC50 (KATO III, Stomach): 4.95
- pEC50 (KHOS-240S, Soft Tissue - Osteosarcoma): 5.30
